Assay results: article PMC10223552 (Pharmaceuticals, 2023)

Columns and labels:
[1] = tested on: MCF-7 breast cancer cells; assay: Apoptosis/necrosis detection (Annexin V-FITC/PI, image cytometry), MCF-7; assay type: cell-based, human; conditions: MCF-7, IC50 concentration, 48 h
Protocol: The MTT test results prompted further study. Staining with propidium iodide and Annexin V-FITC was performed to distinguish apoptotic from necrotic cell death.
Apoptosis was analyzed using the NucleoCounter® NC-3000™ (Chemometec Inc., Lillerød, Denmark) according to the manufacturer’s protocol using Annexin V from Biotium (Fremont, CA, USA). MCF-7 and MDA-MB-231 cells were seeded into 6-well plates (2 × 10^5 cells/mL) and cultured until 70–80% confluence was reached. […] Scatter plots were used to determine the proportion of healthy cells (Annexin V-negative/PI-negative cells), early apoptotic cells (Annexin V-positive/PI-negative cells), late apoptotic cells (Annexin V-positive/PI-positive cells), and necrotic cells (Annexin V-negative/PI-positive cells). Data were derived from three independent experiments with three replicates.

gpH1R = target: T1, gpH1R (Cavia porcellus, UniProt P31389); assay: Ex vivo assay for histamine H1R antagonists on guinea pig ileum stimulated by histamine (+atropine); conditions: gpH1R +Atropine pA2 ± sem, isolated guinea pig ileum, vs histamine, 0.05 µM atropine
T1 construct: from tissue; host or cells: isolated distal ileum of male guinea pigs
Protocol: A second histamine receptor located in the guinea pig ileum is H1R. The antagonistic effect at H1R was measured on the isolated guinea pig ileum stimulated to contractions by histamine. To eliminate the impact of muscarinic receptors located on the tested tissue, 0.05 µM of atropine was added to the Krebs buffer.
Ex vivo assay for histamine H3R and H1R antagonists were measured on the isolated guinea pig ileum stimulated to contractions by histamine. The pA2-values were calculated according to Arunlakshana and Schild. The radioligand-displacement binding assay was performed in membrane fractions of HEK-293 cells stably expressing hH3R. Cell cultivation and membrane preparation was performed according to Kottke et al.. The Ki values were calculated from the IC50 values using the Cheng–Prusoff equation [37]. The statistical calculations were performed on –log(Ki). […] The inhibitory activities of novel ADS compounds were assessed in spectrophotometric Ellman’s assay using AChE from electric eel (eeAChE) and BuChE from horse serum (eqBuChE).
3.2 Ex vivo assay for histamine H1R receptor antagonists on guinea pig ileum.
Male guinea pigs, weighing 300-400 g were euthanized by a blow to the neck. A 20-30 cm length of the distal ileum, apart from the terminal 5 cm was rapidly removed and placed in phosphate buffer at room temperature (pH […]
Aldrich, St. Louis, MO, USA) (1·10-6 mol/L). The intraluminal content was rinsed and the isolated intestine was cut into 1.5-2 cm segments. The preparations were mounted isotonically in a 20 mL organ bath filled with Krebs […]
a constant load of 0.5 g (Hugo Sachs Hebel-Messvorsatz (Tl-2)/HF-modem; Hugo Sachs Elektronik, Hugstetten, Germany) connected to a pen recorder (Kipp & Zonen BD41, Delft, Holland). During an equilibration period of 40 min, the Krebs buffer was changed every 10 min. The first cumulative concentration-response curve was determined to histamine (Sigma-Aldrich, St. Louis, MO, USA) (10 nM - 10 mM) at increasing concentration spaced by three or 3.3-fold. The second to the fourth (or fifth) curve was measured in the presence of an increasing concentration of antagonist (incubation time 10 min). The pA2-values were calculated according to Arunlakshana and Schild. [Br J Pharmacol Chemother. […] Statistical analysis was carried out with the Students’ t-test. In all tests, a p<0.05 was considered statistically significant. The pA2 values were compared with the affinity

[2] = In vitro metabolic stability in human liver microsomes; assay type: in vitro ADME
Protocol: In addition to biological activity, drug-likeness is equally important in drug discovery, and should be considered at the early stage of the drug development process. Therefore, ADS10310 was subjected to testing for several ADME-Tox parameters, including metabolic stability.
All assays and protocols used for the determination of compound ADME-Tox parameters were described previously. In brief, the metabolic stability assay was performed on HLMs, purchased from Sigma-Aldrich (St. Louis, MO, USA). ADS10310 was incubated with HLMs for 120 min in Tris buffer (pH = 7.4) at 37 °C. NADPH regeneration system Promega (Madison, WI, USA) was added to initiate whereas methanol was added to terminate the reaction. The LC/MS analyses of the centrifuged reaction mixture were obtained on Waters ACQUITY™ TQD system (Waters, Milford, CT, USA). The in silico prediction of most probable sites of ADS10310 metabolism was performed by MetaSite 6.0.1 software (Molecular Discovery Ltd., Hertfordshire, UK). To predict potential DDIs the CYP3A4 and CYP2D6 P450-Glo™ kits provided by Promega (Madison, WI, USA) were used according to provided protocols. The results were calculated from two independent experiments.

T1 sequence (P31389 whole entry): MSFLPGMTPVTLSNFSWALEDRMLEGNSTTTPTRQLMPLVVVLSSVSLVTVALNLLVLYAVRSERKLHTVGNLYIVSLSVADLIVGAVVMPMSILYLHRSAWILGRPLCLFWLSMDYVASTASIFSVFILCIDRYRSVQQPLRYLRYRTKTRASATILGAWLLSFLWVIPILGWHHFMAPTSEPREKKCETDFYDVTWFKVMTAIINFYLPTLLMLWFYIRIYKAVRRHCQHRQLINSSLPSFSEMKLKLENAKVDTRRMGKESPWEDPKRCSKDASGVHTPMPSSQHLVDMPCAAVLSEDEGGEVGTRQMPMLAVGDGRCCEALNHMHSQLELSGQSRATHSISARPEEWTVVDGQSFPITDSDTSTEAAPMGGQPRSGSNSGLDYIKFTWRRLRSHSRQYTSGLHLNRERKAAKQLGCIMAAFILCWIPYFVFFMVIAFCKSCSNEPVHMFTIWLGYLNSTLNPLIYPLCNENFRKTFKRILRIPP

SMILES | early apoptotic cells (Q1lr) [1] | late apoptotic cells (Q1ur) [1] | Kb (gpH1R) | Substrate Remaining ([2]; 120 min incubation with HLMs, Tris buffer pH 7.4, 37 °C) | Metabolic Pathway ([2]; HLMs, metabolites M1-M3 by LC/MS)
N=C(N)N(CCCCN1CCN(CCCCCCCOc2ccccc2)CC1)Cc1ccccc1 [ADS1017] | 2% | 38% | – | – | –
Cl.Cl.N=C(NCCCCc1ccc(Cl)cc1)NCCCCN1CCCCC1 [ADS10310] | – | – | 339 nM | 73.6% | decomposition and triple hydroxylation
